# Measurements as given in patent publication US6281234A, “(2-Acylaminothiazole-4-yl)acetic acid derivative” (American Home Products Corporation, priority 1999, dated 2001).
# Biological target: T1, Recombinant Rat Protein Tyrosine Phosphatase 1B (rPTP1B) (Rattus norvegicus, UniProt P20417)
# T1 construct: laboratory of Dr. Barry Goldstein, Thomas Jefferson University (obtained from, not a commercial purchase)
# T1 sequence (P20417 1-432): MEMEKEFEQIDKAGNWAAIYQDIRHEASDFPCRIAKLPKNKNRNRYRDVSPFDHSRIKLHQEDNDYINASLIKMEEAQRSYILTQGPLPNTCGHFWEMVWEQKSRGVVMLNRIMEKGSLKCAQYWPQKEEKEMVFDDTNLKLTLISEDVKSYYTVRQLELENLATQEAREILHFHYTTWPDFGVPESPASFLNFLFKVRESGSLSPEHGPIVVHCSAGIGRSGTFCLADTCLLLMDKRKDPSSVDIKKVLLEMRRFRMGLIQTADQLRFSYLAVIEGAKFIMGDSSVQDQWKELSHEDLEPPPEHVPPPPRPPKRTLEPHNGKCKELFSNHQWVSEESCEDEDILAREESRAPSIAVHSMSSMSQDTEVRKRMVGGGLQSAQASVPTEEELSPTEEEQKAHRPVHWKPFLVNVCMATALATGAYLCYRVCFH
# Experiment: Inhibition of recombinant rat PTP1B (rPTP1B) activity using p-nitrophenylphosphate as substrate
# Assay type: biochemical
# Conditions: All compounds administered at 25 μM; p-nitrophenyl phosphate substrate, pH 7.4, 37° C., 30 min
# Protocol: Inhibition of Recombinant Rat Protein Tyrosine Phosphatase 1B (rPTP1B) Activity Using p-nitrophenylphosphate as a Substrate.
# Measurement of pNPPase Activity.
# The reaction is started by the addition of p-nitrophenyl phosphate and after 30 minutes at 37° C., the reaction is terminated by adding 1 ml of 0.1 N NaOH. […] The samples are read at 410 nm in a spectrophotometer and are evaluated based on a calibration curve of p-nitrophenol standard solution.
# Compounds were screened robotically at a single concentration of ~25 μM. The results are expressed as percent of control, in that the amount of p-nitrophenol formed in the compound treated samples (nmol/minute/mg protein) is compared to the amount (nmol/minute/mg protein) formed in the untreated samples. p-Nitrophenylphosphatase activity is also determined in each experiment and is expressed per minute per mg protein.
row,SMILES,% inhibition [%]
1,"[Na+].[Na+].[Na+].[O]=[V]([O-])([O-])[O-] [Na3 VO4, reference compound]",86.3

# Same assay, conditions: All compounds administered at 25 μM; p-nitrophenyl phosphate substrate, pH 7.4, 37° C., 30 min; 25 µM
row,SMILES,% inhibition [%]
1,"CCCCCCCC/C=C/CCCCCCCC(=O)Nc1nc(CC(=O)O)cs1 [Example 2, 2-[((E)-1-Oxo-9-octadecenyl)amino]-4-thiazoleacetic Acid]",93.9
2,CCCCCCCC/C=C/CCCCCCCC(=O)Nc1nc(CC(=O)O)cs1 [Example 3],58.16

# Same assay, conditions: pH 7.4, All compounds administered at 25 μM; p-nitrophenyl phosphate substrate, pH 7.4, 37° C., 30 min
row,SMILES,inhibition at 25 µM [%]
1,"CCCCCCCC/C=C\CCCCCCCC(=O)Nc1nc(CC(=O)O)cs1 [Example 1, 2-[((Z)-1-Oxo-9-octadecenyl)amino]-4-thiazoleacetic Acid]",93.4
2,CCCCCCCCC#CCCCCCCCC(=O)Nc1nc(CC(=O)O)cs1 [Example 4],84.8
3,CCCCCCCCCCC/C=C\CCCCC(=O)Nc1nc(CC(=O)O)cs1 [Example 5],95
4,"CCCCCC/C=C\CCCCCCCC(=O)Nc1nc(CC(=O)O)cs1 [Example 6, 2-[((Z)-1-Oxo-9-hexadecenyl)amino]-4-thiazoleacetic Acid]",93.8
5,"CCCCCC/C=C/CCCCCCCC(=O)Nc1nc(CC(=O)O)cs1 [Example 7, 2-[((E)-1-Oxo-9-hexadecenyl)amino]-4-thiazoleacetic Acid]",83.8
6,"CCCCCC/C=C/CCCCCCCCCC(=O)Nc1nc(CC(=O)O)cs1 [Example 8, 2-[((E)-1-Oxo-11-octadecenyl)amino]-4-thiazoleacetic Acid]",96.6
7,"CC/C=C\C/C=C\C/C=C\CCCCCCCC(=O)Nc1nc(CC(=O)O)cs1 [Example 9, 2-[((Z,Z,Z)-1-Oxo-9,12,15-octadecatrienyl)amino]-4-thiazoleacetic Acid]",92.4
